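Protocol summary: plate cells (96-well), add compound at 5 concentrations, incubate 48 h, interpolate endpoints linearly. GI50 marks 50% less growth. TGI marks complete inhibition of growth.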
Key:
Assay in all cases: NCI anticancer screen, dose series, 48 h
[1] = tested on: 786-0 renal
[2] = tested on: A549 NSCLC
[3] = tested on: ACHN renal
[4] = tested on: CAKI-1 renal
[5] = tested on: CCRF-CEM leukemia
[6] = tested on: COLO 205 colon
[7] = tested on: DU-145 prostate
[8] = tested on: EKVX NSCLC
[9] = tested on: HCC-2998 colon
[10] = tested on: HCT-116 colon
[11] = tested on: HCT-15 colon
[12] = tested on: HOP-62 NSCLC
[13] = tested on: HOP-92 NSCLC
[14] = tested on: HS 578T breast
[15] = tested on: HT29 colon
[16] = tested on: IGROV1 ovarian
[17] = tested on: K-562 leukemia
[18] = tested on: KM12 colon
[19] = tested on: LOX IMVI melanoma
[20] = tested on: M14 melanoma
[21] = tested on: MALME-3M melanoma
[22] = tested on: MCF7 breast
[23] = tested on: MDA-MB-231 breast
[24] = tested on: MDA-MB-435
[25] = tested on: MOLT-4 leukemia
[26] = tested on: NCI-H226 lung
[27] = tested on: NCI-H23 lung
[28] = tested on: NCI-H460 lung
[29] = tested on: NCI-H522 lung
[30] = tested on: NCI/ADR-RES ovarian
[31] = tested on: OVCAR-3 ovarian
[32] = tested on: OVCAR-4 ovarian
[33] = tested on: OVCAR-5 ovarian
[34] = tested on: OVCAR-8 ovarian
[35] = tested on: PC-3 prostate
[36] = tested on: RPMI-8226 leukemia
[37] = tested on: SF-268 CNS
[38] = tested on: SF-295 CNS
[39] = tested on: SK-MEL-2 melanoma
[40] = tested on: SK-MEL-28 melanoma
[41] = tested on: SK-MEL-5 melanoma
[42] = tested on: SK-OV-3 ovarian
[43] = tested on: SN12C renal
[44] = tested on: SNB-19 CNS
[45] = tested on: SR leukemia
[46] = tested on: SW-620 colon
[47] = tested on: T-47D breast
[48] = tested on: TK-10 renal
[49] = tested on: U251 CNS
[50] = tested on: UACC-257 melanoma
[51] = tested on: UACC-62 melanoma
[52] = tested on: UO-31 renal

`O=C1c2ccccc2-c2c1c1c(O)cccc1n2-c1ccccc1` showed a GI50 [1] of 62.2 µM, a TGI [1] greater than 100 µM and a GI50 [2] greater than 100 µM. It also gave a TGI [2] greater than 100 µM, a GI50 [3] greater than 100 µM and a TGI [3] greater than 100 µM. It also gave a GI50 [4] greater than 100 µM, a TGI [4] greater than 100 µM and a GI50 [5] of 45.3 µM. It also gave a TGI [5] greater than 100 µM, a GI50 [6] greater than 100 µM and a TGI [6] greater than 100 µM. For the same molecule, the GI50 [7] was greater than 100 µM, the TGI [7] was greater than 100 µM and the GI50 [8] was greater than 100 µM. It also gave a TGI [8] greater than 100 µM, a GI50 [9] greater than 100 µM and a TGI [9] greater than 100 µM. It also gave a GI50 [10] greater than 100 µM, a TGI [10] greater than 100 µM and a GI50 [11] greater than 100 µM. For the same molecule, the TGI [11] was greater than 100 µM, the GI50 [12] was 66.3 µM and the TGI [12] was greater than 100 µM. The TGI [13] was 0.035 µM, the GI50 [14] was greater than 100 µM and the TGI [14] was greater than 100 µM. It also gave a GI50 [15] greater than 100 µM, a TGI [15] greater than 100 µM and a GI50 [16] greater than 100 µM. For the same molecule, the TGI [16] was greater than 100 µM, the GI50 [17] was greater than 100 µM and the TGI [17] was greater than 100 µM. It also gave a GI50 [18] greater than 100 µM, a TGI [18] greater than 100 µM and a GI50 [19] greater than 100 µM. It also gave a TGI [19] greater than 100 µM, a GI50 [20] of 29.3 µM and a TGI [20] greater than 100 µM. It also gave a GI50 [21] greater than 100 µM, a TGI [21] greater than 100 µM and a GI50 [22] greater than 100 µM. For the same molecule, the TGI [22] was greater than 100 µM, the GI50 [23] was greater than 100 µM and the TGI [23] was greater than 100 µM. For the same molecule, the GI50 [24] was greater than 100 µM, the TGI [24] was greater than 100 µM and the GI50 [25] was greater than 100 µM. For the same molecule, the TGI [25] was greater than 100 µM, the GI50 [26] was greater than 100 µM and the TGI [26] was greater than 100 µM. The GI50 [27] was greater than 100 µM, the TGI [27] was greater than 100 µM and the GI50 [28] was greater than 100 µM. For the same molecule, the TGI [28] was greater than 100 µM, the GI50 [29] was greater than 100 µM and the TGI [29] was greater than 100 µM. The GI50 [30] was greater than 100 µM, the TGI [30] was greater than 100 µM and the GI50 [31] was greater than 100 µM. For the same molecule, the TGI [31] was greater than 100 µM, the TGI [32] was greater than 100 µM and the GI50 [33] was greater than 100 µM. The TGI [33] was greater than 100 µM, the GI50 [34] was greater than 100 µM and the TGI [34] was greater than 100 µM. For the same molecule, the GI50 [35] was greater than 100 µM, the TGI [35] was greater than 100 µM and the GI50 [36] was 0.0318 µM. For the same molecule, the TGI [36] was 93.8 µM, the GI50 [37] was greater than 100 µM and the TGI [37] was greater than 100 µM. The GI50 [38] was greater than 100 µM, the TGI [38] was greater than 100 µM and the GI50 [39] was greater than 100 µM. For the same molecule, the TGI [39] was greater than 100 µM, the GI50 [40] was 18.5 µM and the TGI [40] was greater than 100 µM. For the same molecule, the GI50 [41] was greater than 100 µM, the TGI [41] was greater than 100 µM and the GI50 [42] was greater than 100 µM. For the same molecule, the TGI [42] was greater than 100 µM, the GI50 [43] was greater than 100 µM and the TGI [43] was greater than 100 µM. The GI50 [44] was greater than 100 µM, the TGI [44] was greater than 100 µM and the GI50 [45] was greater than 100 µM. For the same molecule, the TGI [45] was greater than 100 µM, the GI50 [46] was greater than 100 µM and the TGI [46] was greater than 100 µM. For the same molecule, the GI50 [47] was greater than 100 µM, the TGI [47] was greater than 100 µM and the GI50 [48] was greater than 100 µM. It also gave a TGI [48] greater than 100 µM, a GI50 [49] greater than 100 µM and a TGI [49] greater than 100 µM. The GI50 [50] was greater than 100 µM, the TGI [50] was greater than 100 µM and the GI50 [51] was greater than 100 µM. The TGI [51] was greater than 100 µM, the GI50 [52] was greater than 100 µM and the TGI [52] was greater than 100 µM.

Reference: PubChem BioAssay (NCI)
